# From PubChem BioAssay AID602296 (Broad Institute, 2012)
# Records with an inconclusive call do not appear. Calls of active or inactive are those of the source.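 How the source made its calls: active means fitted activation curve crossing 40% at a concentration no higher than the sample's top valid tested dose; inconclusive means flat fitted curve at 30% to 70% activation, or poor curve fit; inactive means signal decrease, flat curve within 30%, or the rest.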
# Tested on: NIH3T3-HGL HSF-1 response element luciferase, 48 h
# Test: HSF-1 reporter activators over prolonged exposure, confirmation, cell-based, mouse, luciferase, cherry-pick, dose (AID 602296);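 further: test compounds applied by themselves with no MG132 co-treatment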
row,Compound,AC40
1,CC(=O)Oc1ccc(Cn2cnc3cc4ccccc4cc32)cc1,14.7 µM
2,COc1ccc(-c2nnc3ccc(SCC(=O)NCC4CCCO4)nn23)cc1 (stereo not drawn),> 26 µM (inactive)
3,C=CCNC(=S)N/N=C/c1ccc(-c2ccc(Br)cc2)o1,22 µM
4,O=C(O)C(Cc1ccccc1)N1C(=O)c2c(Cl)c(Cl)c(Cl)c(Cl)c2C1=O (stereo not drawn),> 12 µM (inactive)
5,CSc1c(C#N)c(N)nc2sc(C(=O)c3ccccc3)c(N)c12,5.48 µM
6,CC(C)(C)c1cc(NC(=O)CCSc2nnc3ccccn23)cc(C(C)(C)C)c1,> 26 µM (inactive)
7,CCn1nc(C)cc1C(=O)Sc1ccc(Cl)cc1Cl,14.5 µM
8,CCOC(=O)/C=C/C(=O)N1CCc2ccccc21,> 26 µM (inactive)
9,NC(=O)CCN1CCN(CCOC2Cc3cc(Cl)ccc3Sc3ccccc32)CC1 (stereo not drawn),> 26 µM (inactive)
10,CC(CCc1ccccc1)NC(=O)CN1CCc2ccccc2C1 (stereo not drawn),> 26 µM (inactive)
11,CN(Cc1nnc(-c2ccc(F)cc2)o1)c1ccccc1,9.33 µM
12,COc1ccc(C2C(C(C)=O)=C(O)C(=O)N2c2ccc(C)cc2)cc1 (stereo not drawn),> 26 µM (inactive)
13,NC(CSCc1cccc(Br)c1)C(=O)O (stereo not drawn),> 26 µM (inactive)
14,CCC(C)c1ccccc1NC(=O)c1cc(C)no1 (stereo not drawn),> 26 µM (inactive)
15,CCc1nc2c(sc3nc4c(cc32)COC(C)(C)C4)c(=O)n1Cc1ccco1,> 26 µM (inactive)
16,C=CCn1c(=O)c2ccccc2n2c(SCC(=O)Nc3sc(C)c(CC)c3C(=O)OCC)nnc12,> 26 µM (inactive)
17,CC1(C)CC(=O)C2=C(C1)Nc1cc3c(cc1C2c1ccc2c(c1)OCO2)OCO3 (stereo not drawn),7.45 µM
18,Cn1nnc2c[n+](CC(=O)c3ccc4ccccc4c3)cc(Br)c21,> 26 µM (inactive)
19,O=C1NC(=O)[C@]2(Cc3ccccc3N3CCN(c4ccccc4)CC32)C(=O)N1Cc1ccccc1 (stereo partly drawn),2.51 µM
20,CC(=O)NC(=O)NC1OC(=O)C(Cl)=C1Cl (stereo not drawn),> 26 µM (inactive)
21,Nc1cc(-c2ccco2)no1,> 26 µM (inactive)
22,C/C(=N\NC(=O)c1ccoc1C)c1cccc2ccccc12,10.2 µM

row,Compound,AC40
1,Cc1cccc(N=Nc2c(C)c(C#N)c(O)[nH]c2=O)c1,> 26 µM (inactive)
2,Cc1ccc(NN2C(=O)C=C(c3ccccc3)C2=O)cc1,7.33 µM
3,C=CCOc1ccc(-c2nc3c(c(=O)[nH]c(=O)n3Cc3ccccc3)n2CCCOC)cc1,> 26 µM (inactive)
4,Cc1nc2ncnn2c(C)c1CCC(=O)NCc1ccco1,> 26 µM (inactive)
5,COCCCN(CC(=O)O)S(=O)(=O)c1cccc(Cl)c1,> 26 µM (inactive)
6,Cc1ccc(CN(C)C(=O)C2CCC(=O)N(CCc3ccccc3)C2)o1 (stereo not drawn),9.82 µM
7,O=C1CCCN2N=C(SCC(=O)Nc3ccc(Br)cc3)SC2=N1,> 26 µM (inactive)
8,O=C1C=C(c2ccccc2)CC(/C=C/c2ccccc2)C1 (stereo not drawn),18 µM
9,Nc1nnc(SCc2c(F)cccc2Cl)s1,14.4 µM
10,COc1ccccc1C(=O)CSc1nnc(-c2ccco2)o1,11.7 µM
11,CCC(C)(C)c1ccc(OC(=O)c2cccnc2Cl)cc1,> 26 µM (inactive)
12,CCc1cc(C(c2ccccc2OC)N2CCOCC2)c(NC(=O)c2ccccc2)s1 (stereo not drawn),> 26 µM (inactive)
13,CC(C)Nc1nc(Cl)nc(N(C#N)CN2C(=O)c3ccccc3C2=O)n1,> 26 µM (inactive)
14,COc1ccc(NC(=S)Nc2ccccc2SC)c(OC)c1,24.2 µM
15,COc1cnn(-c2cc(Oc3ccc(C)cc3)ncn2)c(=O)c1Cl,> 26 µM (inactive)
16,Cc1ccc(SCCCCN2CCOCC2)cc1,23.9 µM
17,CCOc1ccccc1-c1noc(CCCC(=O)NC2CCCCC2)n1,> 26 µM (inactive)
18,Cc1ccc(=O)n(C(C(=O)NCc2ccco2)C(=O)c2ccc(F)cc2)c1 (stereo not drawn),> 26 µM (inactive)
19,COc1ccc(C(=O)Cn2c(C(=O)/C=C/c3ccccc3)nc3ccccc32)cc1,2.39 µM
20,O=C(CC(c1ccco1)S(=O)(=O)c1ccccc1)c1ccc(F)cc1 (stereo not drawn),> 26 µM (inactive)
21,CCCn1c(SCc2nc3sc(C)c(C)c3c(=O)[nH]2)nc2ccccc2c1=O,> 26 µM (inactive)
